Measurements reported in paper PMC6278656, “Synthesis and Biological Evaluation of Phaeosphaeride A Derivatives as Antitumor Agents” (Molecules, 2018).

Columns and labels:
Format in all cases: cell-based
[1] = tested on: human colorectal cancer HCT-116 cells; experiment: MTT cytotoxicity assay, HCT-116; settings: Homo sapiens, MTT, 72 h, n = 3, ± SD, read-out: Adhesive Cell Cultures, IC50 HCT-116
Protocol: (§1) All newly synthesized PPA derivatives 1–8 were evaluated for their anti-proliferative activity against human breast cancer MCF-7, human prostate adenocarcinoma PC-3, human colorectal cancer HCT-116, human lung cancer A549, human chronic myelogenous leukemia K562, human acute monocytic leukemia THP-1, human multiple myeloma RPMI8226, human acute T-cell leukemia Jurkat, human multiple myeloma NCI-H929, and human embryonic fibroblasts HEF cell lines by MTT assays. All cells were incubated with different concentrations of PPA derivatives for 72 h, with etoposide and PPA used as reference compounds. The anticancer activity of the tested compounds was described as the concentration of drug inhibiting 50% cell growth IC50 (Table 1 and Table 2).
(§2) ^1H-NMR spectra were acquired on an AVANCE III 400 MHz NMR spectrometer (Bruker, Rheinstetten, Germany) in CDCl3. Optical rotations were acquired on a Polaar 3005 Polarimeter (Optical Activity, Huntingdon, Great Britain) using a 2.5 cm cell with a Na 589 nm filter and the concentration of samples was denoted as c. Mass spectra data were acquired on a TSQ Quantum Access Max Mass spectrometer (Thermo Fisher Scientific, Waltham, MA, USA). High-resolution mass spectra (HRMS) were acquired on a LTQ Orbitrap Velos spectrometer (Thermo Scientific) and on a Bruker MicrOTOF. FTIR spectra were acquired on an IR Affinity-1 spectrometer (Shimadzu, Thermo Scientific). Organic solvents used were dried by standard methods when necessary. Commercially available reagents were used without further purification. All reactions were monitored by TLC with silica gel coated plates (EMD/Merck KGaA, Darmstadt, Germany), with visualization by UV light and by charring with 0.1% ninhydrin in EtOH. Column chromatography was performed using Merck 60 Å 70–230 mesh silica gel. The optical density was determined using a Multiskan FC spectrophotometer (Thermo Scientific) at a wavelength of 540 nm when using the MTT assay.
(§3) MCF-7 (breast cancer), PC-3 (prostate adenocarcinoma), HCT-116 (colorectal cancer cell), A549 (lung cancer), K562 (chronic myelogenous leukemia), THP-1 (acute monocytic leukemia), and RPMI8226 (multiple myeloma), Jurkat (acute T-cell leukemia), HEF (human embryonic fibroblasts) was purchased from the Russian Academy of Sciences Cells Bank (Institute of Cytology of the Russian Academy of Sciences, Saint Petersburg, Russian Federation). Multiple myeloma cell line NCI-H929 was purchased from ATCC (USA). The MCF-7, A549 and HEF (human embryonic fibroblasts) were cultured in DMEM medium. Other cell lines were cultured in RPMI1640 medium, (PanEco, Russia) supplemented with 10% fetal bovine serum (GE Healthcare LifeSciences, São Paulo, Brazil), and gentamicin at a concentration of 40 μg/mL and cultured at 37 °C in a humidified atmosphere containing 5% CO2. All experiments were performed with cells at passages 3 to 7 in the logarithmic phase of growth.
(§4) Cells were seeded into 96-well plates of 5 × 10^3 for adhesive cultures and 20 × 10^3 for suspension cultures per well in 90 μL and 135 μL of culture medium, respectively. The test substances were dissolved in DMSO to a concentration of 1 × 10^−2 M. For subsequent dilution of the substances, a serum-free culture medium was used as the diluent. Final concentration of DMSO in wells was no more than 1%. […] Substances were added to the cells in 3–4 replicates after 24 h for adhesive cultures and immediately for suspension cultures. 10–15 μL of serum-free medium was added to the control wells with non-exposed cells. Cells were cultured for 72 h at 37 °C in an atmosphere of 5% CO2.

[2] = tested on: human prostate adenocarcinoma PC-3 cells; experiment: MTT cytotoxicity assay, PC-3; settings: Homo sapiens, MTT, 72 h, n = 3, ± SD, read-out: Adhesive Cell Cultures, IC50 PC-3
Protocol: as §1, §2, §3, §4

[3] = tested on: human breast cancer MCF-7 cells; experiment: MTT cytotoxicity assay, MCF-7; settings: MCF7, 72 h, n = 3, ± SD, read-out: Adhesive Cell Cultures, IC50 MCF-7
Protocol: as §1, §2, §3, §4

[4] = tested on: human lung cancer A549 cells; experiment: MTT cytotoxicity assay, A549; settings: 72 h, n = 3, ± SD, read-out: Adhesive Cell Cultures, IC50 A549
Protocol: as §1, §2, §3, §4

[5] = tested on: human embryonic fibroblasts HEF; experiment: MTT cytotoxicity assay, HEF (control cells); settings: Fibroblast, 72 h, n = 3, ± SD, read-out: Adhesive Cell Cultures, IC50 HEF
Protocol: as §1, §2, §3, §4

[6] = tested on: human chronic myelogenous leukemia K562 cells; experiment: MTT cytotoxicity assay, K562; settings: Homo sapiens, MTT, 72 h, n = 3, ± SD, read-out: Suspension Cell Cultures, IC50 К562
Protocol: as §1, §2, §3, §4

[7] = tested on: human multiple myeloma NCI-H929 cells; experiment: MTT cytotoxicity assay, NCI-H929; settings: Homo sapiens, MTT, 72 h, n = 3, ± SD, read-out: Suspension Cell Cultures, IC50 NCI-Н929
Protocol: as §1, §2, §3, §4

[8] = tested on: human acute T-cell leukemia Jurkat cells; experiment: MTT cytotoxicity assay, Jurkat; settings: Homo sapiens, MTT, 72 h, n = 3, ± SD, read-out: Suspension Cell Cultures, IC50 Jurkat
Protocol: as §1, §2, §3, §4

[9] = tested on: human acute monocytic leukemia THP-1 cells; experiment: MTT cytotoxicity assay, THP-1; settings: 72 h, n = 3, ± SD, read-out: Suspension Cell Cultures, IC50 THP-1
Protocol: as §1, §2, §3, §4

[10] = tested on: human multiple myeloma RPMI8226 cells; experiment: MTT cytotoxicity assay, RPMI8226; settings: Homo sapiens, RPMI-8226; MTT, 72 h, n = 3, ± SD; read-out: Suspension Cell Cultures, IC50 RPMI8228
Protocol: as §1, §2, §3, §4

Compound	IC50 [1] [µM]	IC50 [2] [µM]	IC50 [3] [µM]	IC50 [4] [µM]	IC50 [5] [µM]	IC50 [6] [µM]	IC50 [7] [µM]	IC50 [8] [µM]	IC50 [9] [µM]	IC50 [10] [µM]
C=C1C2=C(C(=O)N1OC)[C@@H](NC)[C@@](C)(O)[C@H](CCCCC)O2 [Compound 1, (2S,3R,4R)-3-Hydroxy-6-methoxy-3-methyl-4-(methylamino)-7-methylene-2-pentyl-3,4,6,7-tetrahydro-pyrano[2,3-c]pyrrol-5(2H)-one]	3.68 ± 0.81	3.35 ± 0.92	4.1 ± 0.44	12.7 ± 0.4	22.3 ± 0.44	3.25 ± 0.64	1.35 ± 0.69	2.75 ± 0.21	2.25 ± 0.21	3.97 ± 0.68
C=C1C2=C(C(=O)N1OC)[C@@H](NCCO)[C@@](C)(O)[C@H](CCCCC)O2 [Compound 2, (2S,3R,4R)-3-Hydroxy-4-[(2-hydroxyethyl)amino]-6-methoxy-3-methyl-7-methylene-2-pentyl-3,4,6,7-tetra-hydropyrano[2,3-c]pyrrol-5(2H)-one]	4.63 ± 0.04	5.55 ± 1.48	3.23 ± 1.07	15.1 ± 0.45	16.2 ± 0.26	5.5 ± 0.57	2.05 ± 0.35	2.6 ± 0.99	2.3 ± 0.57	3.5 ± 0.82
C=C1C2=C(C(=O)N1OC)[C@@H](NCCCCO)[C@@](C)(O)[C@H](CCCCC)O2 [Compound 3, (2S,3R,4R)-3-Hydroxy-4-[(4-hydroxybutyl)amino]-6-methoxy-3-methyl-7-methylene-2-pentyl-3,4,6,7-tetra-hydropyrano[2,3-c]pyrrol-5(2H)-one]	2.9 ± 0.98	4.5 ± 1.56	3.05 ± 1.2	–	15.2 ± 1.02	6.7 ± 0.28	1.95 ± 0.21	3.15 ± 1.77	2.6 ± 0.57	2.7 ± 0.28
C=CCN[C@@H]1C2=C(O[C@@H](CCCCC)[C@]1(C)O)C(=C)N(OC)C2=O [Compound 4, (2S,3R,4R)-4-(Allylamino)-3-hydroxy-6-methoxy-3-methyl-7-methylene-2-pentyl-3,4,6,7-tetrahydropyrano-[2,3-c]pyrrol-5(2H)-one]	8.4 ± 0.24	6.37 ± 0.18	4.13 ± 0.23	12.7 ± 0.27	5.03 ± 0.15	10.5 ± 0.41	2.35 ± 0.09	3.27 ± 0.07	3.32 ± 0.1	6 ± 0.13
C=C1C2=C(C(=O)N1OC)[C@@H](NCc1ccccc1)[C@@](C)(O)[C@H](CCCCC)O2 [Compound 5, (2S,3R,4R)-4-(benzylamino)-3-hydroxy-6-methoxy-3-methyl-7-methylene-2-pentyl-3,4,6,7-tetrahydro-pyrano[2,3-c]pyrrol-5(2H)-one]	12.9 ± 0.3	24.7 ± 1.24	35.7 ± 0.65	37.5 ± 1.33	53.1 ± 1.06	14.1 ± 0.48	–	10.1 ± 0.44	15.1 ± 0.36	16 ± 0.16
C=C1C2=C(C(=O)N1OC)[C@@H](N1CCC(N3CCCC3)CC1)[C@@](C)(O)[C@H](CCCCC)O2 [Compound 7, (2S,3R,4R)-3-Hydroxy-6-methoxy-3-methyl-7-methylene-2-pentyl-4-(4-pyrrolidin-1-ylpiperidin-1-yl)-3,4,6,7-tetrahydropyrano[2,3-c]pyrrol-5(2H)-one]	1.65 ± 0.63	3.65 ± 0.64	1.8 ± 0.44	12.2 ± 0.2	22.3 ± 0.33	6.03 ± 0.91	2 ± 0.26	2.73 ± 1.53	3.45 ± 0.21	3.35 ± 1.48
C=C1C2=C(C(=O)N1OC)[C@@H](N1CCC(O)CC1)[C@@](C)(O)[C@H](CCCCC)O2 [Compound 8, (2S,3R,4R)-3-Hydroxy-4-(4-hydroxypiperidin-1-yl)-6-methoxy-3-methyl-7-methylene-2-pentyl-3,4,6,7-tetra-hydropyrano[2,3-c]pyrrol-5(2H)-one]	2.64 ± 0.05	4.53 ± 0.4	3.2 ± 0.52	9.4 ± 0.14	6.7 ± 0.23	4.9 ± 2.4	1.87 ± 0.25	2.6 ± 1.13	2.1 ± 0.28	1.4 ± 0.28
